These results are taken from US7345050B2, “Pyrimidine compounds” (AstraZeneca AB, priority 2001, dated 2008).

Where only a bound is given, the exact number is not on record here.

In the case of `O=C(c1ccc(Nc2nccc(-c3cnc4ccccn34)n2)cc1)c1ccc2cc[nH]c2c1` [Example 11, 2-[4-(1 H-Indol-6-ylcarbonyl)anilino]-4-(imidazo-[1,2-a]-pyridin-3-yl)pyrimidine], the melting point (in general, the temperature, or range, at which the solid turns liquid) was 173 to 178 °C (dec.).
`O=C(c1ccc(Nc2nccc(-c3cnc4ccccn34)n2)cc1)c1cccc(Cl)c1` [Example 5, 2-[4-(3-Chlorobenzoyl)anilino]-4-(imidazo-[1,2-a)-pyridin-3-yl)pyrimidine] displayed a melting point of 194.7 to 196.7 °C.
Then `Cc1ccc(C(=O)c2ccc(Nc3nccc(-c4cnc5ccccn45)n3)cc2)cc1` [Example 3, 2-[4-(4-Methylbenzoyl)anilino)-4-(imidazo-[1,2-a]-pyridin-3-yl)pyrimidine], with 238.9 to 239.2 °C.
`O=C(c1ccccc1)c1ccc(Nc2nccc(-c3cnc4ccccn34)n2)cc1` [Example 7, 2-(4-Benzoylanilino)-4-(imidazo-[1,2-a]-pyridin-3-yl)pyrimidine]: the melting point was 249 to 255 °C (dec.).
Then `CCOc1cccc(C(=O)c2ccc(Nc3nccc(-c4cnc5ccccn45)n3)cc2)c1` [Example 6, 2-[4-(3-Ethoxybenzoyl)anilino]-4-(imidazo-[1,2-a]-pyridin-3-yl)pyrimidine], with 197.3 to 197.5 °C.
The same measure for `O=C(c1ccccc1)c1cccc(Nc2nccc(-c3cnc4ccccn34)n2)c1` [Example 10, 2-(3-Benzoylanilino)-4-(imidazo-[1,2-a]-pyridin-3-yl)pyrimidine]: 237 to 246 °C (dec.); for `O=C(c1ccc(Nc2nccc(-c3cnc4ccccn34)n2)cc1)c1ccc(N2CCOCC2)cc1` [Example 1, 2-[4-(4-Morpholinobenzoyl)anilino]-4-(imidazo-[1,2-a]-pyridin-3-yl)pyrimidine]: > 237 °C (dec.).
Then `O=C(Cc1ccccc1)c1ccc(Nc2nccc(-c3cnc4ccccn34)n2)cc1` [Example 9, 2-[4-(1-Oxo-2-phenylethyl)anilino]-4-(imidazo-[1,2-a]-pyridin-3-yl)pyrimidine], with 225 to 228 °C (dec.); and `O=C(c1ccc(Nc2nccc(-c3cnc4ccccn34)n2)cc1)c1nccs1` [Example 13, 2-[4-(1,3-Thiazol-2-ylcarbonyl)anilino]-4-(imidazo-[1,2-a]-pyridin-3-yl)pyrimidine], with 234 to 235 °C (dec.); and `OC(c1ccccc1)c1ccc(Nc2nccc(-c3cnc4ccccn34)n2)cc1` (racemic) [Example 8, (±)-2-[4-(Hydroxyphenylmethyl)anilino]-4-(imidazo-[1,2-a]-pyridin-3-yl)pyrimidine], with 213 to 216 °C.
In the case of `N#Cc1ccc(C(=O)c2ccc(Nc3nccc(-c4cnc5ccccn45)n3)cc2)cc1` [Example 4, 2-[4-(4-Cyanobenzoyl)anilino]-4-(imidazo-[1,2-a]-pyridin-3-yl)pyrimidine], the melting point was > 230 °C (dec.).
